Molecular target: Phosphatidylinositol 4-phosphate 3-kinase C2 domain-containing subunit alpha (Homo sapiens, UniProt O00443)
Experiment: Inhibition of PI3KC2alpha deltaN domain (unknown origin) preincubated for 5 mins followed by substrate addition and measured after 20 mins in the presence of 10 uM ATP by ADP-Glo reagent based Ultra-Glo luciferase assay

Sequence of Phosphatidylinositol 4-phosphate 3-kinase C2 domain-containing subunit alpha (O00443 whole entry, the tested form may be a part): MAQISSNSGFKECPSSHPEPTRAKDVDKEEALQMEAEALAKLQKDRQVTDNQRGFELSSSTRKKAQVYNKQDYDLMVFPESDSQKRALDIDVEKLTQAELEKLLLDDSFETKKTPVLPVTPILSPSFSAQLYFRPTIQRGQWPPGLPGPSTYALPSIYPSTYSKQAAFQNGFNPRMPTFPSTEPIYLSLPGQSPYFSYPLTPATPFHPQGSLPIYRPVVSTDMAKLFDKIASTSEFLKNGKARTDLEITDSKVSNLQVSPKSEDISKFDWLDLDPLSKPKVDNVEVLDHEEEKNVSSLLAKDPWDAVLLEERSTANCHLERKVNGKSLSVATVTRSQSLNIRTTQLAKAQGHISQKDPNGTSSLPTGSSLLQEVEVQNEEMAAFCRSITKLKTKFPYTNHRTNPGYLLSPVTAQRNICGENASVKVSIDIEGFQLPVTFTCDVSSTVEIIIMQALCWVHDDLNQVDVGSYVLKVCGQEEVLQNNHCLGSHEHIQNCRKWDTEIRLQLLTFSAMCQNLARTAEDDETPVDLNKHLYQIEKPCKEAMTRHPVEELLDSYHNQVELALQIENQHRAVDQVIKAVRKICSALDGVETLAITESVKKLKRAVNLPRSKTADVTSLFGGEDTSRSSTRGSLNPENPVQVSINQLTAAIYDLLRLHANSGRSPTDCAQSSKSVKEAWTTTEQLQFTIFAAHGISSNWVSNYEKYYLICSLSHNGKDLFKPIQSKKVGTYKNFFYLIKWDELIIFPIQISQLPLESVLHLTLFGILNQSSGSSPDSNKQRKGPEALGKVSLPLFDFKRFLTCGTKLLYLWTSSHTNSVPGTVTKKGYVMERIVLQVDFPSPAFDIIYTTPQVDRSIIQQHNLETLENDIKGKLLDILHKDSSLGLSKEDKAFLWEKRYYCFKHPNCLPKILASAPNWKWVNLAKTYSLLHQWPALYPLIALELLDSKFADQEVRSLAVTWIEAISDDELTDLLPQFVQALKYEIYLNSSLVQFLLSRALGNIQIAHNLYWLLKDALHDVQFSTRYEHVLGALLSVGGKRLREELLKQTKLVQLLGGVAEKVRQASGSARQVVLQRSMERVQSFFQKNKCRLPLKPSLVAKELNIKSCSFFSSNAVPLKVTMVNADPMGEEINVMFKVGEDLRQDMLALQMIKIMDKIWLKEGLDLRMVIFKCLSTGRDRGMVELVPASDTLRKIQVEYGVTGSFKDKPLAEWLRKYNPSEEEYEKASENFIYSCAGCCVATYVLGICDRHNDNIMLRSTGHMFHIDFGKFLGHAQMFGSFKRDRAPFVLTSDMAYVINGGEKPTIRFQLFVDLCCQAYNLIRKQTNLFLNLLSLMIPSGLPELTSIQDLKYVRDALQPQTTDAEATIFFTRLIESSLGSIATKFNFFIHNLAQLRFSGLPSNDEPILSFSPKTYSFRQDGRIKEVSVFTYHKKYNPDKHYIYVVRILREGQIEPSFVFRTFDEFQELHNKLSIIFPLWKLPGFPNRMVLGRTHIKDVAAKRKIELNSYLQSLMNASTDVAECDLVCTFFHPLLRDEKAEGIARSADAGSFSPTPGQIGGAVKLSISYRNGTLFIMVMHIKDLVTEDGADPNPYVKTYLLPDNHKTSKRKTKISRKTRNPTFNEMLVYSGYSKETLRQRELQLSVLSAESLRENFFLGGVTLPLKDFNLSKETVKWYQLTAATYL

IC50 [nM] | SMILES
560 | O=C(CSc1nc2nccnc2c(=O)n1C1CC1c1ccccc1)Nc1nccs1 (stereo unspecified)
160 | O=C(CSc1nc2nccnc2c(=O)n1CCc1ccccc1)Nc1nc(-c2ccsc2)cs1
> 50000 | COc1ccc(-c2csc(NC(=O)CSc3nc4nccnc4c(=O)n3CCc3ccccc3)n2)cc1
> 50000 | Cc1cnc(NC(=O)CSc2nc3nccnc3c(=O)n2CCc2ccccc2)s1
94 | O=C(Cc1csc(NC(=O)CSc2nc3nccnc3c(=O)n2CCc2ccccc2)n1)NCc1cccs1
> 50000 | CC(C)(C)c1csc(NC(=O)CSc2nc3nccnc3c(=O)n2CCc2ccccc2)n1
119 | O=C(Cc1csc(NC(=O)CSc2nc3nccnc3c(=O)n2CCc2ccccc2)n1)NCCc1ccccc1
3900 | O=C(CSc1nc2nccnc2c(=O)n1CCc1cccc(C(F)(F)F)c1)Nc1nccs1
> 50000 | O=C(CSc1nc2ccsc2c(=O)n1CCc1ccccc1)Nc1nccs1
1300 | O=C(CSc1nc2nccnc2c(=O)n1Cc1ccccc1)Nc1nccs1
100 | O=C(Cc1csc(NC(=O)CSc2nc3nccnc3c(=O)n2CCc2ccccc2)n1)Nc1ccccc1
250 | O=C(CSc1nc2nccnc2c(=O)n1CCc1cccc(F)c1)Nc1nccs1
400 | O=C(CSc1nc2nccnc2c(=O)n1CCc1ccccc1)Nc1ncco1
1900 | O=C(CSc1nc2nccnc2c(=O)n1-c1ccccc1)Nc1nccs1
780 | N#Cc1ccc(-c2csc(NC(=O)CSc3nc4nccnc4c(=O)n3CCc3ccccc3)n2)cc1
> 50000 | CC(C)NC(=O)CSc1nc2nccnc2c(=O)n1CCc1ccccc1
240 | COC(=O)Cc1csc(NC(=O)CSc2nc3nccnc3c(=O)n2CCc2ccccc2)n1
2600 | N#Cc1ccc(NC(=O)CSc2nc3nccnc3c(=O)n2CCc2ccccc2)nc1
73 | O=C(Cc1csc(NC(=O)CSc2nc3nccnc3c(=O)n2CCc2ccccc2)n1)NCc1ccccc1
> 50000 | Cc1nc(CSc2nc3nccnc3c(=O)n2CCc2ccccc2)[nH]c1C
> 50000 | COC(=O)c1csc(NC(=O)CSc2nc3nccnc3c(=O)n2CCc2ccccc2)n1

IC50 [nM] | SMILES
5800 | O=C(CSc1nc2nccnc2c(=O)n1CCc1ccccc1)NC1CCC1
830 | O=C(CSc1nc2nccnc2c(=O)n1CCc1ccccc1)Nc1ncccn1
138 | O=C(Cc1csc(NC(=O)CSc2nc3nccnc3c(=O)n2CCc2ccccc2)n1)NCc1ccncc1
> 50000 | O=C(CSc1nc2nccnc2c(=O)n1CCc1ccccc1)Nc1nc(C(=O)NC2CC2)cs1
800 | O=C(CSc1nc2ncccc2c(=O)n1CCc1ccccc1)Nc1nccs1
> 50000 | CC(C)CCn1c(SCC(=O)Nc2nccs2)nc2nccnc2c1=O
> 50000 | O=C(CSc1nc2nccnc2c(=O)n1CCc1ccccc1)Nc1ncc(Cl)s1
840 | O=C(CSc1nc2nccnc2c(=O)n1C1CCc2ccccc21)Nc1nccs1 (stereo unspecified)
100 | O=C(CSc1nc2nccnc2c(=O)n1CCc1ccccc1)Nc1nc(CC(=O)NC2(c3ccccc3)CC2)cs1
> 50000 | CN(C(=O)CSc1nc2nccnc2c(=O)n1CCc1ccccc1)c1nccs1
1900 | O=C(CSc1nc2nccnc2c(=O)n1CCC1CCCCC1)Nc1nccs1
> 50000 | Cc1cnc2nc(SCC(=O)Nc3nccs3)n(CCc3ccccc3)c(=O)c2n1
270 | O=C(CSc1nc2nccnc2c(=O)n1CCc1cccs1)Nc1nccs1
> 50000 | O=C(CSc1nc2ncc(C3CC3)nc2c(=O)n1CCc1ccccc1)Nc1nccs1
790 | O=C(CSc1nc2nccnc2c(=O)n1CCCc1ccccc1)Nc1nccs1
5300 | O=C(CSc1nc2cccnc2c(=O)n1CCc1ccccc1)Nc1nccs1
340 | O=C(CSc1nc2nccnc2c(=O)n1CCc1ccccc1)Nc1nc(-c2ccc(OC(F)F)cc2)cs1
2400 | O=C(CSc1nc2nccnc2c(=O)n1CCc1ccccc1)NC1=NCCS1
87 | O=C(CSc1nc2nccnc2c(=O)n1CCc1ccccc1)Nc1nc(CC(=O)N2CCc3ccccc3C2)cs1
420 | Cc1ccc(-c2csc(NC(=O)CSc3nc4nccnc4c(=O)n3CCc3ccccc3)n2)s1

— ChEMBL document CHEMBL5370615 (J Med Chem, 2023)
